Measured values reported in PMC4830977 (Scientific Reports, 2016).
Several values for one entry are separate records, joined by “and”; a condition that tells them apart may be missing. Equal values may be shown once. Read-outs that look alike come from different tables or passages of the source.

Key:
TSP4 = experiment: 3H-gabapentin binding to membranes of tsA-201 cells expressing only TSP4 (control); details: 1 experiment in triplicate
Experimental: Each experiment was carried out in triplicate, and the mean value used for subsequent analysis.
Harvesting of the samples was performed by filtration through GF/B filter papers (Whatman, GE Healthcare) pre-soaked in 0.3% polyethyleneimine solution, in order to reduce non-specific binding to the filter paper. The samples were transferred to the filters by washing the tubes three times with Tris-HCl (100 mM, pH 7.4, Sigma 7–9) using a Brandel Harvester (Brandel). The GF/B filter papers were then cut out and transferred to vials containing 5 ml of scintillant (Liquid scintillant cocktail, Beckman Coulter). Samples were equilibrated for 18 h and then the activity was counted in triplicate in a scintillation counter (Beckman Coulter) for 10 min per sample.

TSP4-EGF = experiment: 3H-gabapentin binding to TSP4-EGF alone (control); details: control experiment, data not shown
α2δ-1-MIDAS^AAA = experiment: [3H]-gabapentin saturation binding to membranes of tsA-201 cells expressing α2δ-1 MIDAS mutant
Experimental: Cell membrane and DRM fractions were prepared essentially as described previously. Cultured tsA-201 cells were washed twice in ice-cold PBS and then left in ice-cold PBS containing Complete protease inhibitor cocktail (Roche, concentration according to manufacturer’s instructions) for 5 min. Cells were gently washed off the bottom of the flask and pelleted at 2000 × g for 10 min. Pellets were kept on ice if used immediately, or stored at −20 °C until required. For brain membranes, adult male Sprague Dawley rats (200–250 g) were euthanised by CO2 inhalation and then decapitated. The whole brain minus cerebellum was homogenised on ice in a buffer containing the following (in mM): 20 HEPES, pH 7.4, 2 EDTA, EDTA-free protease inhibitor cocktail (Roche, concentration according to manufacturer’s instructions).
For membrane preparation, pellets obtained from cell harvesting, resuspended in ice-cold 10 mM Hepes plus protease inhibitors (pH 7.4), or brain homogenate, were mechanically lysed by 10–15 passages through a 23 gauge needle. Cell debris and non-lysed cells were pelleted for 15 min at 1,000 × g. The supernatant obtained was transferred to a 30 ml thick-walled ultracentrifuge tube (Beckman-Coulter). Membranes were pelleted in an ultracentrifuge (Beckman-Coulter) for 90 min at 60,000 × g, and resuspended as required. Aliquots were used to determine the protein concentration.

[1] = system: synaptogenic domain of TSP2 and α2δ-1; details: co-expressed in HEK-293 cells; cited from earlier work
[2] = α2δ-1-MIDAS^AAA + TSP4 with EDTA, n = 3 (Fig. 1F)
[3] = α2δ-1-MIDAS^AAA + TSP4 with Mg2+, n = 3 (Fig. 1F)
[4] = α2δ-1-MIDAS^AAA with EDTA, n = 3 (Fig. 1F)

Row | SMILES | binding to TSP4 alone (TSP4) | binding to TSP4-EGF alone (TSP4-EGF) | nH (α2δ-1-MIDAS^AAA) | mean Bmax (α2δ-1-MIDAS^AAA; [2]) [pmol/mg protein] | nH (α2δ-1-MIDAS^AAA; [2]) | mean Bmax (α2δ-1-MIDAS^AAA; [3]) [pmol/mg protein] | nH (α2δ-1-MIDAS^AAA; [3]) | mean Bmax (α2δ-1-MIDAS^AAA; [4]) [pmol/mg protein] | nH (α2δ-1-MIDAS^AAA; [4]) | Kd (α2δ-1-MIDAS^AAA; α2δ-1-MIDAS^AAA with Mg2+, n = 2 (Fig. 1F), read-out: KD, individual values) | mean Bmax (α2δ-1-MIDAS^AAA; α2δ-1-MIDAS^AAA with Mg2+, n = 2, individual values 0.53, 0.38 (Fig. 1F)) [pmol/mg protein] | binding affinity compared with WT α2δ-1 (α2δ-1-MIDAS^AAA; α2δ-1 MIDAS^AAA (Fig. 1F)) | effect on co-immunoprecipitation between synaptogenic domain of TSP2 and α2δ-1 [1]
1 | NCC1(CC(=O)O)CCCCC1 [[^3H]-gabapentin] | no direct binding | no ^3H-gabapentin binding | 1.43 | 0.24 ± 0.02 | 1.49 ± 0.10 | 0.37 ± 0.06 | 1.45 ± 0.05 | 0.68 ± 0.12 | 1.33 ± 0.07 | 117 nM and 190 nM | 0.46 | affinity similar to WT α2δ-1 | –
2 | NCC1(CC(=O)O)CCCCC1 [gabapentin] | – | – | – | – | – | – | – | – | – | – | – | – | inhibit co-immunoprecipitation
